The structures appear in SMILES notation. In brackets after ≈: the same amount, converted by molar mass. Some results are limits rather than exact numbers.

For the data set the following is noted: buffer; pH 7.4; 200.0 µM.
Usually solubility (kinetic) stands for the concentration staying in solution when a stock, usually in DMSO, is diluted into the medium. On to `Cc1cc(C(=O)NCc2cc(C(=O)O)co2)co1`, for which the kinetic solubility is more than 37.4 µg/mL.
`Cc1ccc(C(=O)Nc2ccc(N3CCOCC3)nc2N2CCOCC2)cc1` yielded a solubility (kinetic) of 5.6 µg/mL (≈ 14.6 µM).
`C=CCNC(=O)c1cnc(-c2ccccc2)nc1-c1ccccc1` had a kinetic solubility of 0.7 µg/mL (≈ 2.22 µM).
As to `CCOc1ccc(NC(=O)CN(C)C(=O)C2COc3ccccc3O2)cc1OCC` (centres undefined), the solubility (kinetic) was more than 62.2 µg/mL.
The value for `O=CC(Br)P(=O)(N1CCOCC1)N1CCOCC1` (centres undefined) was more than 51.2 µg/mL; that for `CC(NC(=O)CS(=O)(=O)c1ccccc1)c1ccccc1` (centres undefined) was more than 45.5 µg/mL; that for `Cn1c(Cc2ccccc2)nnc1SCC(=O)Nc1ccccc1` was more than 50.8 µg/mL.
`Cc1cc(C(=O)N2CCC(C(=O)O)CC2)c(C)o1` displayed a kinetic solubility of more than 37.7 µg/mL.
For the compound `Cc1c(Cl)cccc1NC(=S)NC1CCN(C(C)C)CC1`, the solubility (kinetic) is more than 48.9 µg/mL.
Regarding `Nc1ccc(Sc2ccccc2Cl)nc1`, the solubility (kinetic) was more than 35.5 µg/mL.
The compound `CCC(C)(C)c1ccc(OC(=O)c2cccnc2Cl)cc1` had a kinetic solubility of less than 0.7 µg/mL.
As for `CCC(=O)Nc1nc(NCc2ccccc2OC)n(-c2ccccc2)n1`, the kinetic solubility was more than 52.7 µg/mL.
As for `Cc1cc(Nc2cccc(Cl)c2Cl)n2ncnc2n1`, the solubility (kinetic) was more than 44.1 µg/mL.
Compound `CC(=O)N/C(=N/c1nc(C)cc(C)n1)Nc1cccc(C)c1` came in with a solubility (kinetic) of 22.2 µg/mL (≈ 74.7 µM).
Compound `CSc1ncc(Cl)c(C(=O)Nc2c(C)cccc2C)n1` gave a kinetic solubility of 2.3 µg/mL (≈ 7.47 µM).
As for `CC(C)(C)c1csc(NC(=O)c2cccnc2)n1`, the kinetic solubility was determined as 10 µg/mL (≈ 38.3 µM).
For the compound `C=CCN1C(=O)C(CC(=O)NCC)SC1=Nc1ccccc1CC` (centres undefined), the solubility (kinetic) is 44.3 µg/mL (≈ 128 µM).
To `CCCCOC(=O)C1=C(C)NC(=O)NC1c1ccccc1` (centres undefined) belongs 13.5 µg/mL (≈ 46.8 µM); to `Cn1c(=O)c2c(nc(N3CCOCC3)n2CCc2ccccc2)n(C)c1=O`, 53.9 µg/mL (≈ 146 µM); to `CCC(Oc1cccc(Cl)c1)C(=O)N1CCCN(C)CC1` (centres undefined), more than 46.6 µg/mL.
With `O=C(Cc1cccc(Cl)c1)Nc1ccc(Br)cc1`, the kinetic solubility stood at 2.9 µg/mL (≈ 8.93 µM).
Compound `Nc1ccc(-c2nc3cc([N+](=O)[O-])ccc3o2)cc1` showed a kinetic solubility of 1.1 µg/mL (≈ 4.31 µM).
The compound `O=C(NC(=S)Nc1ccc(CN2CCOCC2)cc1)c1ccco1` showed a solubility (kinetic) of more than 51.8 µg/mL.
The compound `CC(Oc1ccc(Br)cc1Cl)C(=O)Nc1ccncc1` (centres undefined) came in with a solubility (kinetic) of 45.9 µg/mL (≈ 129 µM).
Compound `O=C(COC(=O)c1ccc2c(c1)OCCO2)NCCc1ccc(F)cc1` displayed a kinetic solubility of 5.3 µg/mL (≈ 14.7 µM).
`CCC(OC(=O)c1nsc(Cl)c1Cl)C(=O)NC(C)(C)CC` (centres undefined): the kinetic solubility is more than 53 µg/mL.
On to `O=C(O)c1cccc(Nc2nc3ccccc3nc2NS(=O)(=O)c2ccc(F)cc2)c1`, for which the solubility (kinetic) is more than 65.8 µg/mL.
Turning to `COCCNc1nc(-c2ccccc2)nc2ccccc12.Cl`, the kinetic solubility was more than 47.4 µg/mL.
In the case of `O=C(CNC(=O)c1ccco1)OCc1ccc(Br)cc1`, the kinetic solubility stood at 40.5 µg/mL (≈ 120 µM).
To `O=C(CNCc1ccco1)Nc1cc(S(=O)(=O)N2CCOCC2)ccc1N1CCOCC1` belongs more than 69.7 µg/mL; to `Cc1nc2oc3ccc(F)cc3c(=O)c2cc1C(=O)O`, 40.8 µg/mL (≈ 149 µM); to `CCCOc1ccccc1Cn1c(=O)oc2ccccc21`, 3.9 µg/mL (≈ 13.8 µM).
`Cc1cc(C)c(C#N)c(SCCN2CCCCC2)n1` showed a solubility (kinetic) of more than 41.3 µg/mL.
On to `Br.Fc1ccc(CNCC2CCCO2)cc1` (centres undefined), for which the solubility (kinetic) turned out to be 39.1 µg/mL.
For `Oc1ccc(C2Nc3cccc4cccc(c34)N2)cc1`, the solubility (kinetic) is more than 39.3 µg/mL.
Compound `O=[N+]([O-])c1ccc(NCc2ccc(Cl)cc2)nc1` gave a kinetic solubility of 1.2 µg/mL (≈ 4.55 µM).
Take `Cc1cc2oc(=O)cc(CN3CCOCC3)c2cc1O`: the kinetic solubility was more than 41.3 µg/mL.
Turning to `Cc1ccc(C(=O)CCC(=O)Nc2ccccc2F)cc1`, the solubility (kinetic) was 4.8 µg/mL (≈ 16.8 µM).
To `COc1ccc(C(=O)NCc2cc(C)nc3ccccc23)cc1OC` belongs 39.6 µg/mL (≈ 118 µM); to `O=C(NCc1csc2ccccc12)Nc1cc(Cl)cc(Cl)c1`, 2.1 µg/mL (≈ 5.98 µM); to `Fc1ccc(Nc2nc(-c3ccncc3)cs2)cc1`, 0.8 µg/mL (≈ 2.95 µM).
For `COc1ccc(S(=O)(=O)N2CCSCC2)cc1`, the solubility (kinetic) was more than 41 µg/mL.
As for `Cn1c(Cl)cnc1C(O)(c1ccccc1)c1ccccc1`, the kinetic solubility amounted to 10.2 µg/mL (≈ 34.1 µM).
Regarding `O=C(Nc1ccc2c(c1)OCCO2)C(=O)NC1CC1`, the solubility (kinetic) came to 30.8 µg/mL (≈ 117 µM).
Take `COC(=O)c1sccc1-n1cc(C#N)c(=O)n(C)c1=O`: the kinetic solubility was more than 43.7 µg/mL.
`COc1ccccc1-c1ccc(/C=N/O)o1` registered a solubility (kinetic) of 3.9 µg/mL (≈ 18 µM).
Take `Cc1cc(F)ccc1NC(=S)NCCc1ccccc1`: the kinetic solubility came to 22.5 µg/mL (≈ 78 µM).
To `CN=C(Nc1cccnc1)c1cccc(C(F)(F)F)c1` belongs more than 41.9 µg/mL.
Turning to `CC(=O)c1ccc(-c2ccc(C(=O)NCC3CCCO3)o2)cc1` (centres undefined), the solubility (kinetic) was more than 47 µg/mL.
In the case of `NC(=O)[C@@H]1CCCN1Cc1nc(-c2ccccc2)no1`, the kinetic solubility stood at 31.9 µg/mL (≈ 117 µM).
Consider `Cc1ccc(N2CCN(c3ncccc3[N+](=O)[O-])CC2)c(C)c1`, for which the kinetic solubility was 1.4 µg/mL (≈ 4.48 µM).
Take `CC(C)CNS(=O)(=O)c1ccc(CCC(=O)NCCc2ccccc2)cc1`: the kinetic solubility is 16.3 µg/mL (≈ 42 µM).
The value for `Cc1ccc(Cl)cc1NS(=O)(=O)N1CCOCC1` was more than 43.6 µg/mL.
The value for `Cc1ccc(C(C)C)cc1S(=O)(=O)NCc1ccccn1` was more than 45.7 µg/mL; that for `Nc1ccc(Oc2ccc(F)cc2)nc1` was 27.6 µg/mL (≈ 135 µM); that for `CC(=O)OCc1c(C)cc(C)c(/C=C(/C#N)C(N)=O)c1C` was more than 42.9 µg/mL.
To `CC(C)(C)N1C(=O)c2ccc(C(=O)Nc3ccc(O)cc3)cc2C1=O` belongs 17.4 µg/mL (≈ 51.4 µM); to `CCCCc1cc(=O)oc2cc(OCC(=O)N3CCOCC3)ccc12`, 19.2 µg/mL (≈ 55.6 µM).
Regarding `O=C(O)c1ccc[nH]c1=S`, the solubility (kinetic) is more than 23.3 µg/mL.
As for `CCOc1ccc(S(=O)(=O)N(CC)CC)cc1N`, the solubility (kinetic) was more than 40.9 µg/mL.
With `Cc1cccnc1NC(=S)NCc1ccco1`, the kinetic solubility came to 31.4 µg/mL (≈ 127 µM).
Compound `Cc1cccc(-n2c(=S)[nH]c3ccccc3c2=O)n1` had a solubility (kinetic) of more than 40.4 µg/mL.
The compound `O=C(Nc1cnccn1)c1ccc(F)cc1Cl` gave a kinetic solubility of more than 37.7 µg/mL.
As for `COC(=O)c1cc(NC(=O)COC(=O)C2COc3ccccc3O2)cc(C(=O)OC)c1` (centres undefined), the kinetic solubility turned out to be 54.7 µg/mL (≈ 127 µM).
As for `O=C(COC(=O)/C=C/c1ccc(C(F)(F)F)cc1)NCCC1=CCCCC1`, the kinetic solubility came out at 4.3 µg/mL (≈ 11.3 µM).
`O=C(CC(Nc1ccccc1)c1ccccc1)C1CC1` (centres undefined) showed a kinetic solubility of less than 0.6 µg/mL.
`Cc1ccc(NC(=O)CCOc2ccccc2)cc1` yielded a kinetic solubility of 11.7 µg/mL (≈ 45.8 µM).
The value for `CCOC(=O)C1CCCN(C(=O)Nc2c(-c3ccccc3)noc2C)C1` (centres undefined) was 52.4 µg/mL (≈ 147 µM); that for `Cc1ccc(C(=O)C2CCN(S(=O)(=O)c3c(C)noc3C)CC2)cc1` was 13.6 µg/mL (≈ 37.5 µM).
The value for `Cc1ccc(C(=O)NCC(=O)NCC(c2cccs2)N(C)C)cc1C` (centres undefined) was more than 53.9 µg/mL; that for `CN(C)C(=S)SCC(=O)NC(=O)NC(C)(C)C` was 39.4 µg/mL (≈ 142 µM); that for `CCN(CC(=O)Nc1ccc2c(c1)OCCO2)C(=O)c1ccc(CS(C)(=O)=O)cc1` was more than 64.9 µg/mL.
The value for `COc1ccc(Nc2ncnc3c2c(C)c(C)n3CCO)cc1` was more than 46.9 µg/mL; that for `CCOC(=O)c1sc(NC(=O)CN2CCN(c3ccc(OC)cc3)CC2)nc1C` was 15.3 µg/mL (≈ 36.6 µM); that for `N/C(=N\OC(=O)c1ccccc1)c1ccncc1` was 34.8 µg/mL (≈ 144 µM).
Take `COc1ccc(S(=O)(=O)NCC(=O)NCCc2ccc(OC)c(OC)c2)cc1`: the kinetic solubility is more than 61.3 µg/mL.
The compound `Oc1cccc(N2Cc3ccccc3C2)c1` returned a solubility (kinetic) of 13 µg/mL (≈ 61.5 µM).
The value for `O=C(CSc1nc2c(c(=O)[nH]1)CCC2)Nc1cccc(F)c1` was 12.2 µg/mL (≈ 38.2 µM); that for `CN(CC(=O)Nc1cccc(F)c1)C(=O)c1ccncc1` was more than 43.1 µg/mL; that for `CSc1ccccc1C(=O)C1CCCN(C(=O)NC(C)C)C1` (centres undefined) was 42.1 µg/mL (≈ 131 µM).
Regarding `O=S(=O)(NCCc1c[nH]c2ccccc12)c1ccccc1`, the solubility (kinetic) is more than 45.1 µg/mL.
With `O=C(NCc1ccc(F)cc1)Nc1ccc(Cl)cc1`, the kinetic solubility was 1.1 µg/mL (≈ 3.95 µM).
To `O=C(NCCCCNC(=O)C(F)(F)F)C(F)(F)F` belongs more than 42 µg/mL.
As for `Cc1cc(C(C)(C)C)cc(C)c1COC(=O)c1cccnc1`, the solubility (kinetic) stood at 1.7 µg/mL (≈ 5.72 µM).
Regarding `CCOC(=O)C1=C(C)NC(C)=C(C(=O)OCC)C1C(=O)OCC(=O)N1CCOCC1`, the solubility (kinetic) is more than 63.7 µg/mL.
The compound `N#CCOc1ccccc1/C=C/c1nc2ccccc2c(=O)[nH]1` registered a kinetic solubility of 5 µg/mL (≈ 16.5 µM).
The compound `CCC(CO)n1c(=S)[nH]c2cc(OC)c(OC)cc2c1=O` (centres undefined) returned a solubility (kinetic) of more than 46.6 µg/mL.
As to `COC(=O)c1ccc(NC(=O)[C@H](C)NC(N)=O)cc1`, the kinetic solubility was more than 39.8 µg/mL.
`O=C(NCC(O)COc1ccc([N+](=O)[O-])cc1)c1ccccc1` (centres undefined) registered a solubility (kinetic) of 24.8 µg/mL (≈ 78.4 µM).
The compound `COc1ccc(C(=O)O)cc1S(=O)(=O)N(C)CCc1ccccn1` gave a solubility (kinetic) of more than 52.6 µg/mL.
Turning to `Cc1ccc2c(COC(=O)c3c(C)noc3C)cc(=O)oc2c1`, the kinetic solubility came out at 3.1 µg/mL (≈ 9.89 µM).
To `CCCCn1c(O)c(C(C)=NCc2cccnc2)c(=O)[nH]c1=O` belongs more than 47.5 µg/mL.
As to `COc1ccc(OC)c(S(=O)(=O)N2CCCC(C(=O)NCc3ccccn3)C2)c1` (centres undefined), the solubility (kinetic) was more than 62.9 µg/mL.
The compound `O=C(NCc1cccnc1)/C(=C/c1ccccc1)NC(=O)c1ccccc1` gave a kinetic solubility of more than 53.6 µg/mL.
Take `Cc1ccc(NC(=O)Nc2ncnc3nc[nH]c23)cc1`: the kinetic solubility was determined as 6.3 µg/mL (≈ 23.5 µM).
The value for `Cc1c(O)ccc(C(=O)CN2CCN(Cc3ccccc3)CC2)c1O` was 38.1 µg/mL (≈ 112 µM).
Consider `Cc1ccc(-c2csc(NS(=O)(=O)c3cccc(F)c3)n2)o1`, for which the kinetic solubility was more than 50.8 µg/mL.
The compound `C=C[C@]1(C)C[C@@H](OC(=O)CSCCN(CC)CC)[C@]2(C)C(C)CC[C@]3(CCC(=O)[C@H]32)[C@@H](C)[C@@H]1O` (some centres undefined) displayed a kinetic solubility of 64.9 µg/mL (≈ 131 µM).
The compound `O=C(CN1CCN(c2ccccc2)CC1)Nc1ccncc1` had a solubility (kinetic) of 38.6 µg/mL (≈ 130 µM).
In the case of `COCCNC(=S)N1CCC(C(=O)c2ccc(C)cc2)CC1`, the kinetic solubility is 43.2 µg/mL (≈ 135 µM).
In turn, `COc1ccc(NC(=O)C2CC(=O)N=C(N)S2)cc1` (centres undefined) showed a kinetic solubility of more than 41.9 µg/mL.
`NC(=O)C1CCCCc2c1[nH]c1ccc(Cl)cc21` (centres undefined) registered a kinetic solubility of more than 39.4 µg/mL.
In turn, `CC(C)(C)c1ccc(/C=C/C(=O)Nc2cccnc2)cc1` gave a solubility (kinetic) of 1 µg/mL (≈ 3.57 µM).
For the compound `COc1ccc(/C(N)=N/OC(=O)C2CCCCC2)cc1`, the solubility (kinetic) came to 20.6 µg/mL (≈ 74.5 µM).
